Results reported in patent US20110098288A1, “SULFONAMIDES AS ZAP-70 INHIBITORS” (priority 2008, published 2011).
Where a name gives a salt, the structure may show the parent alone.

molecular target: T1, ZAP-70 (Homo sapiens, UniProt P43403); experiment: ZAP-70 kinobeads assay; assay type: binding; settings: competition with immobilized aminopyrido-pyrimidine ligand 24 in cell lysate; ZAP-70 detected by dot blot
T1 construct: endogenous in cells; host or cells: cell lysate
T1 sequence (P43403 1-619): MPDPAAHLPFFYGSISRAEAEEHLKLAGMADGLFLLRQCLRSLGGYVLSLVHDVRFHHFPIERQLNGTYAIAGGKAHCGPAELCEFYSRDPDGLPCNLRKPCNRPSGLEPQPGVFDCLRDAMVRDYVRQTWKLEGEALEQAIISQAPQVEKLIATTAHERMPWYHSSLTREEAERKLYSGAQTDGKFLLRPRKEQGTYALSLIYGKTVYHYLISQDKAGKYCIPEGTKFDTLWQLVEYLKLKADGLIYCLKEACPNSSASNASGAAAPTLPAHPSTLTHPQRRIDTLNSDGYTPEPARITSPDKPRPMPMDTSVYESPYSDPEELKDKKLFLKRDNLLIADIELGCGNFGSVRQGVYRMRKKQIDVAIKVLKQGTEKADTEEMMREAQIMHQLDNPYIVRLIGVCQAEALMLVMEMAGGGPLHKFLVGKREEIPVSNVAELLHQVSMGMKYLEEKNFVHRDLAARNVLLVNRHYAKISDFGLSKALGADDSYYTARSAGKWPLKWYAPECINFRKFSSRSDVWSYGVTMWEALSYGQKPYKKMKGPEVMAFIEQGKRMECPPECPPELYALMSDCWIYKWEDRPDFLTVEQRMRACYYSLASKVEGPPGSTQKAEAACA
Method: The compounds of the present invention as described in the previous examples can be tested in the ZAP-70 kinobeads assay as described (EP-A 1862802 and WO-A 2007/137867). Briefly, test compounds (at various concentrations) and the affinity matrix with the immobilized aminopyrido-pyrimidine ligand 24 are added to cell lysate aliquots and allowed to bind to the proteins in the lysate sample. After the incubation time the beads with captured proteins are separated from the lysate. Bound proteins are then eluted and the presence ZAP-70 is detected and quantified using a specific antibody in a dot blot procedure and the Odyssey infrared detection system. Conventionally, ZAP-70 kinase activity can be measured using purified or recombinant enzyme in a solution-based assay with protein or peptide substrates (Isakov et al., 1996, J. Biol. Chem. 271(26), 15753-15761; Moffat et al., 1999, Bioorg. Med. Chem. Letters 9, 3351-3356).

`Cc1n[nH]c(-c2ccc(Nc3ncc(F)c(Nc4ccccc4NS(C)(=O)=O)n3)cc2)n1` [Example 191, N-(2-(5-fluoro-2-(4-(3-methyl-1H-1,2,4-triazol-5-yl)phenylamino)pyrimidin-4-ylamino)phenyl)methanesulfonamide] and `CS(=O)(=O)Nc1ccccc1Nc1nc(Nc2ccc(C#N)cc2)ncc1F` [Example 196, N-(2-(2-(4-cyanophenylamino)-5-fluoropyrimidin-4-ylamino)phenyl)methanesulfonamide] fall in the same range of IC50: 1 to 10 µM for the first, 1 to 10 µM for the second.

Compared with `CS(=O)(=O)Nc1ccccc1Nc1nc(Nc2cccc(OCCN3CCNCC3)c2)ncc1Cl` [Example 133, N-(2-(5-chloro-2-(3-(2-(piperazin-1-yl)ethoxy)phenylamino)pyrimidin-4-ylamino)phenyl)methanesulfonamide trifluoroacetate], `CS(=O)(=O)Nc1ccccc1Nc1nc(Nc2cccc(OCC(=O)O)c2)ncc1Cl` [Example 149, 2-(3-(5-chloro-4-(2-(methylsulfonamido)phenylamino)pyrimidin-2-ylamino)phenoxy)acetic acid hydrochloride] is higher in IC50: under 0.1 µM for the first, 0.1 to 1 µM for the second. The first is the more potent here.

`CS(=O)(=O)Nc1ccccc1Nc1nc(Nc2cccc(-n3cnnn3)c2)ncc1Cl` [Example 203, N-(2-(2-(3-(1H-tetrazol-1-yl)phenylamino)-5-chloropyrimidin-4-ylamino)phenyl)methanesulfonamide] and `CS(=O)(=O)Nc1ccccc1Nc1nc(Nc2cccc(-n3cncn3)c2)ncc1Cl` [Example 211, N-(2-(2-(3-(1H-1,2,4-triazol-1-yl)phenylamino)-5-chloropyrimidin-4-ylamino)phenyl)methanesulfonamide] fall in the same range of IC50: 0.1 to 1 µM for the first, 0.1 to 1 µM for the second.

First: CS(=O)(=O)Nc1ccccc1Nc1nc(Nc2cccc(C(=O)N3CCCC3)c2)ncc1F [Example 82, N-(2-(5-fluoro-2-(3-(pyrrolidine-1-carbonyl)phenylamino)pyrimidin-4-ylamino)phenyl)methanesulfonamide]
Second: CCN(CC)C(=O)c1cccc(Nc2ncc(F)c(Nc3ccccc3NS(C)(=O)=O)n2)c1 [Example 81, N,N-diethyl-3-(5-fluoro-4-(2-(methylsulfonamido)phenylamino)pyrimidin-2-ylamino)benzamide]
The IC50 of the first is lower: 0.1 to 1 µM for the first, 1 to 10 µM for the second.

`Cc1nnc(-c2cccc(Nc3ncc(F)c(Nc4ccccc4NS(C)(=O)=O)n3)c2)[nH]1` [Example 24, N-(2-(5-fluoro-2-(3-(5-methyl-4H-1,2,4-triazol-3-yl)phenylamino)pyrimidin-4-ylamino)phenyl)methanesulfonamide] and `CS(=O)(=O)Nc1ccccc1Nc1nc(Nc2cccc(-c3nnn[nH]3)c2)ncc1F` [Example 190, N-(2-(2-(3-(1H-tetrazol-5-yl)phenylamino)-5-fluoropyrimidin-4-ylamino)phenyl)methanesulfonamide] fall in the same range of IC50: 1 to 10 µM for the first, 1 to 10 µM for the second.

Compared with `COc1ccc(Nc2nc(Nc3ccc(OC)c(OC)c3)ncc2Br)c(NS(C)(=O)=O)c1` [Example 179, N-(2-(5-bromo-2-(3,4-dimethoxyphenylamino)pyrimidin-4-ylamino)-5-methoxyphenyl)methanesulfonamide], `COc1cc(Nc2ncc(F)c(Nc3ccccc3NS(C)(=O)=O)n2)ccc1Cl` [Example 10, N-(2-(2-(4-chloro-3-methoxyphenylamino)-5-fluoropyrimidin-4-ylamino)phenyl)methanesulfonamide] is higher in IC50: under 0.1 µM for the first, 1 to 10 µM for the second. The first is the more potent here.

Compared with `CS(=O)(=O)Nc1ccccc1Nc1nc(Nc2ccccc2)ncc1F` [Example 34, N-(2-(5-fluoro-2-(phenylamino)pyrimidin-4-ylamino)phenyl)methanesulfonamide], `CS(=O)(=O)Nc1ccccc1Nc1nc(Nc2ccccc2)ncc1Br` [Example 102, N-(2-(5-bromo-2-(phenylamino)pyrimidin-4-ylamino)phenyl)methanesulfonamide hydrochloride] is lower in IC50: 1 to 10 µM for the first, 0.1 to 1 µM for the second.

`CS(=O)(=O)Nc1ccccc1Nc1nc(Nc2ccc(-n3cnnn3)cc2)ncc1F` [Example 195, N-(2-(2-(4-(1H-tetrazol-1-yl)phenylamino)-5-fluoropyrimidin-4-ylamino)phenyl)methanesulfonamide] and `CS(=O)(=O)Nc1ccccc1Nc1nc(Nc2ccc(OC(F)F)cc2)ncc1F` [Example 27, N-(2-(2-(4-(difluoromethoxy)phenylamino)-5-fluoropyrimidin-4-ylamino)phenyl)methanesulfonamide] fall in the same range of IC50: 1 to 10 µM for the first, 1 to 10 µM for the second.

`CCOc1cccc(Nc2ncc(F)c(Nc3ccccc3NS(C)(=O)=O)n2)c1` [Example 13, N-(2-(2-(3-ethoxyphenylamino)-5-fluoropyrimidin-4-ylamino)phenyl)methanesulfonamide] and `CS(=O)(=O)Nc1ccccc1Nc1nc(Nc2cccc(OC(F)F)c2)ncc1F` [Example 26, N-(2-(2-(3-(difluoromethoxy)phenylamino)-5-fluoropyrimidin-4-ylamino)phenyl)methanesulfonamide] fall in the same range of IC50: 1 to 10 µM for the first, 1 to 10 µM for the second.

First: COc1cc(Nc2ncc(F)c(Nc3ccccc3N(C)S(C)(=O)=O)n2)cc(OC)c1OC [Example 71, N-(2-(5-fluoro-2-(3,4,5-trimethoxyphenylamino)pyrimidin-4-ylamino)phenyl)-N-methylmethanesulfonamide]
Second: COc1cc(Nc2ncc(F)c(Nc3ccccc3NS(=O)(=O)c3cccnc3)n2)cc(OC)c1OC [Example 52, N-(2-(5-fluoro-2-(3,4,5-trimethoxyphenylamino)pyrimidin-4-ylamino)phenyl)pyridine-3-sulfonamide]
The IC50 of the first is lower: 0.1 to 1 µM for the first, 1 to 10 µM for the second. The first is the more potent here.

`CCOC(=O)COc1ccc(Nc2ncc(F)c(Nc3ccccc3NS(C)(=O)=O)n2)cc1` [Example 144, Ethyl 2-(4-(5-fluoro-4-(2-(methylsulfonamido)phenylamino)pyrimidin-2-ylamino)phenoxy)acetate hydrochloride] and `CS(=O)(=O)Nc1ccccc1Nc1nc(Nc2cccc(C#N)c2)ncc1F` [Example 200, N-(2-(2-(3-cyanophenylamino)-5-fluoropyrimidin-4-ylamino)phenyl)methanesulfonamide] fall in the same range of IC50: 1 to 10 µM for the first, 1 to 10 µM for the second.

Compared with `COc1ccc(Nc2ncc(F)c(Nc3ccccc3N(C)S(C)(=O)=O)n2)cc1` [Example 108, N-(2-(5-fluoro-2-(4-methoxyphenylamino)pyrimidin-4-ylamino)phenyl)-N-methylmethanesulfonamide], `Cc1nc(-c2cccc(Nc3ncc(Cl)c(Nc4ccccc4NS(C)(=O)=O)n3)c2)no1` [Example 208, N-(2-(5-chloro-2-(3-(5-methyl-1,2,4-oxadiazol-3-yl)phenylamino)pyrimidin-4-ylamino)phenyl)methanesulfonamide] is lower in IC50: 1 to 10 µM for the first, 0.1 to 1 µM for the second.

`COc1cc(Nc2ncc(F)c(Nc3cccc(C)c3NS(C)(=O)=O)n2)cc(OCC2CC2)c1OC` [Example 120, N-(2-(2-(3-(cyclopropylmethoxy)-4,5-dimethoxyphenylamino)-5-fluoropyrimidin-4-ylamino)-6-methylphenyl)methanesulfonamide] and `COc1ccc(Nc2nc(Nc3cc(OC)c(OC)c(OC)c3)ncc2Cl)c(NS(C)(=O)=O)c1F` [Example 187, N-(6-(5-chloro-2-(3,4,5-trimethoxyphenylamino)pyrimidin-4-ylamino)-2-fluoro-3-methoxyphenyl)methanesulfonamide] fall in the same range of IC50: 0.1 to 1 µM for the first, 0.1 to 1 µM for the second.

Work on `Cc1cc(C)n(-c2cccc(Nc3ncc(Cl)c(Nc4ccccc4NS(C)(=O)=O)n3)c2)n1` [Example 209, N-(2-(5-chloro-2-(3-(3,5-dimethyl-M-pyrazol-1-yl)phenylamino)pyrimidin-4-ylamino)phenyl)methanesulfonamide] yielded an IC50 of 1 to 10 µM.
